In patent publication US20100004125A1 (priority 2007, published 2010):
Read-outs that look alike come from different tables or passages of the source.

Tested on: Pyricularia oryzae
Format: cell-based

| SMILES | Efficacy (%) (single compound, Conc 2 ppm, micro titer plate, 405 nm, 7 days after inoculation) | Efficacy (%) |
| --- | --- | --- |
| CC1(C)CC/C(=C\c2ccc(Cl)cc2)C1(O)Cn1cncn1 (single isomer, unassigned; (+)) [Triticonazol, (+) E-5-(4-chlorobenzylidene)-2,2-dimethyl-1-(1H-1,2,4-triazol-1-ylmethyl)cyclopentanol] | 44% | – |
| CN/C(=N\[N+](=O)[O-])NCc1cnc(Cl)s1 [Chlothianidin, (E)-1-(2-chloro-1,3-thiazol-5-ylmethyl)-3-methyl-2-nitroguanidine] | – | 8% |
